Assay results from paper PMC9917560, “Design, Synthesis and Antimicrobial Evaluation of New N-(1-Hydroxy-1,3-dihydrobenzo[c][1,2]oxaborol-6-yl)(hetero)aryl-2-carboxamides as Potential Inhibitors of Mycobacterial Leucyl-tRNA Synthetase” (International Journal of Molecular Sciences, 2023).
In brackets after ≈: the same amount, converted by molar mass. Read-outs that look alike come from different tables or passages of the source.

Tests used:
Assay type in all cases: cell-based
[1] = tested on: Candida albicans CCM 8320 (ATCC 24433); assay: Antifungal microdilution broth (EUCAST); conditions: for MIC: read-out: MIC (visual detection)
[2] = tested on: Candida krusei CCM 8271 (ATCC 6258); assay: Antifungal microdilution broth (EUCAST); conditions: Pichia kudriavzevii; for MIC: read-out: MIC (visual detection)
[3] = tested on: Candida parapsilosis CCM 8260 (ATCC 22019); assay: Antifungal microdilution broth (EUCAST); conditions: Lodderomyces parapsilosis; for MIC: read-out: MIC (visual detection)
[4] = tested on: Candida tropicalis CCM 8264 (ATCC 750); assay: Antifungal microdilution broth (EUCAST); conditions: for MIC: read-out: MIC (visual detection)
[5] = tested on: Aspergillus fumigatus ATCC 204305; assay: Antifungal microdilution broth (EUCAST); conditions: for MIC: read-out: MIC (visual detection)
[6] = tested on: Aspergillus flavus CCM 8363; assay: Antifungal microdilution broth (EUCAST); conditions: for MIC: read-out: MIC (visual detection)
[7] = tested on: Lichtheimia corymbifera CCM 8077; assay: Antifungal microdilution broth (EUCAST); conditions: for MIC: read-out: MIC (visual detection)
[8] = tested on: Trichophyton interdigitale CCM 8377 (ATCC 9533); assay: Antifungal microdilution broth (EUCAST); conditions: for MIC: read-out: MIC (visual detection)
[9] = tested on: Mycobacterium tuberculosis H37Ra ITM-M006710 (ATCC 9431); assay: Antimycobacterial microdilution (resazurin) vs Mtb H37Ra; conditions: Middlebrook 7H9, resazurin, recalculated from µg/mL, read-out: MIC Mtb H37Ra
[10] = tested on: Mycobacterium tuberculosis H37Rv CNCTC My 331/88 (ATCC 27294); assay: Microplate Alamar Blue assay vs Mtb H37Rv; conditions: Mycobacterium tuberculosis, pH 6.6, MABA, Middlebrook 7H9 pH 6.6, recalculated from µg/mL; read-out: MIC Mtb H37Rv
[11] = tested on: Mycobacterium kansasii DSM 44,162 (ATCC 12478); assay: Antimycobacterial microdilution (resazurin) vs M. kansasii; conditions: Middlebrook 7H9, resazurin, read-out: MIC M. kansasii
[12] = tested on: Mycobacterium avium DSM 44,156 (ATCC 25291); assay: Antimycobacterial microdilution (resazurin) vs M. avium; conditions: Mycobacterium avium, Middlebrook 7H9, resazurin; read-out: MIC M. avium
[13] = tested on: Mycolicibacterium aurum DSM 43,999 (ATCC 23366); assay: Antimycobacterial microdilution (resazurin) vs M. aurum; conditions: Middlebrook 7H9, resazurin, read-out: MIC M. aurum
[14] = tested on: Mycolicibacterium smegmatis DSM 43,465 (ATCC 607); assay: Antimycobacterial microdilution (resazurin) vs M. smegmatis; conditions: Middlebrook 7H9, resazurin, read-out: MIC M. smeg.
[15] = tested on: Staphylococcus aureus subsp. aureus CCM 4223 (ATCC 29213); assay: Antibacterial microdilution broth (EUCAST)
[16] = tested on: methicillin-resistant Staphylococcus aureus subsp. aureus (MRSA) CCM 4750 (ATCC 43300); assay: microbe, parasite or virus in culture; conditions: 24 h
[17] = tested on: Staphylococcus epidermidis CCM 4418 (ATCC 12228); assay: Antibacterial microdilution broth (EUCAST)
[18] = tested on: Enterococcus faecalis CCM 4224 (ATCC 29212); assay: Antibacterial microdilution broth (EUCAST); conditions: 24 h
[19] = tested on: Escherichia coli CCM 3954 (ATCC 25922); assay: Antibacterial microdilution broth (EUCAST); conditions: Escherichia coli
[20] = tested on: Klebsiella pneumoniae CCM 4415 (ATCC 10031); assay: Antibacterial microdilution broth (EUCAST); conditions: Klebsiella pneumoniae
[21] = tested on: Acinetobacter baumannii DSM 30007 (ATCC 19606); assay: Antibacterial microdilution broth (EUCAST); conditions: 24 h
[22] = tested on: Pseudomonas aeruginosa CCM 3955 (ATCC 27853); assay: Antibacterial microdilution broth (EUCAST)
[23] = read-out: MIC (spectrophotometric detection, 530 nm)
[24] = read-out: MIC (visual detection)
[25] = 24 h, read-out: IC50 (spectrophotometric detection, 530 nm)

C[C@@H]1[C@H](O)[C@@H](C)/C=C/C=C/C=C/C=C/C=C/C=C/C=C/[C@H](O[C@@H]2O[C@H](C)[C@@H](O)[C@H](N)[C@@H]2O)C[C@@H]2O[C@](O)(C[C@@H](O)C[C@@H](O)[C@H](O)CC[C@@H](O)C[C@@H](O)CC(=O)O[C@H]1C)C[C@H](O)[C@H]2C(=O)O [amphotericin B, reference compound]
IC90 ([1]; Candida albicans CCM 8320, 24 h, read-out: IC90 (spectrophotometric detection, 530 nm)): 1080 nM | MIC ([1]; Candida albicans CCM 8320, 24 h): 1.08 µM (≈ 1 µg/mL) | IC90 ([2]; Candida krusei CCM 8271, 24 h, read-out: IC90 (spectrophotometric detection, 530 nm)): 1080 nM | MIC ([2]; Candida krusei CCM 8271, 24 h): 1.08 µM (≈ 1 µg/mL) | IC90 ([3]; Candida parapsilosis CCM 8260, 24 h, read-out: IC90 (spectrophotometric detection, 530 nm)): 541 nM | MIC ([3]; Candida parapsilosis CCM 8260, 24 h): 0.541 µM (≈ 0.5 µg/mL) | IC90 ([4]; ATCC 750 / CCM 8264 / CCM 8321, CCM 8321, 24 h, read-out: IC90 (spectrophotometric detection, 530 nm)): 1080 nM | MIC ([4]; ATCC 750 / CCM 8264 / CCM 8321, CCM 8321, 24 h): 1.08 µM (≈ 1 µg/mL) | IC90 ([5]; ATCC204305, Aspergillus fumigatus ATCC 204305, 48 h, read-out: IC90 (spectrophotometric detection, 530 nm)): 4.33 µM | MIC ([5]; ATCC204305, Aspergillus fumigatus ATCC 204305, 48 h): 4.33 µM (≈ 4 µg/mL) | IC90 ([6]; CCM8363, Aspergillus flavus CCM 8363, 48 h, read-out: IC90 (spectrophotometric detection, 530 nm)): 4.33 µM | MIC ([6]; CCM8363, Aspergillus flavus CCM 8363, 48 h): 4.33 µM (≈ 4 µg/mL) | IC90 ([7]; CCM8077, Lichtheimia corymbifera CCM 8077, 48 h, read-out: IC90 (spectrophotometric detection, 530 nm)): 1080 nM | MIC ([7]; CCM8077, Lichtheimia corymbifera CCM 8077, 48 h): 1.08 µM (≈ 1 µg/mL) | IC90 ([8]; Trichophyton interdigitale CCM 8377, read-out: IC90 (spectrophotometric detection, 530 nm)): 1080 nM | MIC ([8]; Trichophyton interdigitale CCM 8377): 1.08 µM (≈ 1 µg/mL)

O=C(O)c1cn(C2CC2)c2cc(N3CCNCC3)c(F)cc2c1=O [CIP, ciprofloxacin, reference compound]
MIC [9]: 1.51 µM (≈ 0.5 µg/mL) | MIC [10]: 0.6 µM (≈ 0.199 µg/mL) | MIC [11]: 0.75 µM (≈ 0.249 µg/mL) | MIC [12]: 1.51 µM (≈ 0.5 µg/mL) | MIC [13]: 0.05 µM (≈ 0.0166 µg/mL) | MIC [14]: 0.19 µM (≈ 0.063 µg/mL)

CNC(C)C1CCC(N)C(OC2C(N)CC(N)C(OC3OCC(C)(O)C(NC)C3O)C2O)O1 (stereo not drawn) [gentamicin, reference compound]
MIC ([15]; S. aureus CCM 4223, 95% growth inhibition, 24 h, read-out: MIC (spectrophotometric detection, 530 nm)): 2.09 µM (≈ 1 µg/mL) | MIC ([15]; S. aureus CCM 4223, 24 h, read-out: MIC (visual detection)): 1.05 µM (≈ 0.5 µg/mL) | MIC [16, 23]: > 16.8 µM | MIC [16, 24]: > 16.8 µM | MIC ([17]; S. epidermidis CCM 4418, 95% growth inhibition, 24 h, read-out: MIC (spectrophotometric detection, 530 nm)): 0.131 µM (≈ 0.0626 µg/mL) | MIC ([17]; S. epidermidis CCM 4418, 24 h, read-out: MIC (visual detection)): 0.131 µM (≈ 0.0626 µg/mL) | MIC [18, 23]: > 16.8 µM | MIC [18, 24]: > 16.8 µM | MIC ([19]; E. coli CCM 3954, 95% growth inhibition, 24 h, read-out: MIC (spectrophotometric detection, 530 nm)): 2.09 µM (≈ 1 µg/mL) | MIC ([19]; E. coli CCM 3954, 24 h, read-out: MIC (visual detection)): > 2.09 µM | MIC ([20]; K. pneumoniae CCM 4415, 95% growth inhibition, 24 h, read-out: MIC (spectrophotometric detection, 530 nm)): 1.05 µM (≈ 0.5 µg/mL) | MIC ([20]; K. pneumoniae CCM 4415, 24 h, read-out: MIC (visual detection)): 1.05 µM (≈ 0.5 µg/mL) | MIC [21, 23]: 16.8 µM (≈ 8 µg/mL) | MIC [21, 24]: 16.8 µM (≈ 8 µg/mL) | MIC ([22]; P. aeruginosa CCM 3955, 95% growth inhibition, 24 h, read-out: MIC (spectrophotometric detection, 530 nm)): 1.05 µM (≈ 0.5 µg/mL) | MIC ([22]; P. aeruginosa CCM 3955, 24 h, read-out: MIC (visual detection)): 1.05 µM (≈ 0.5 µg/mL)

C[C@@H](c1ncncc1F)[C@](O)(Cn1cncn1)c1ccc(F)cc1F [voriconazole, reference compound]
IC50 ([1]; Candida albicans, 24 h, read-out: IC50 (spectrophotometric detection, 530 nm)): 86 nM | MIC ([1]; Candida albicans, 24 h): > 45.8 µM | IC50 [2, 25]: 716 nM | MIC ([2]; 24 h): > 45.8 µM | IC50 [3, 25]: 86 nM | MIC ([3]; 24 h): > 45.8 µM | IC50 ([4]; ATCC 750 / CCM 8264 / CCM 8321, 24 h, read-out: IC50 (spectrophotometric detection, 530 nm)): 179 nM | MIC ([4]; ATCC 750 / CCM 8264 / CCM 8321, 24 h): > 45.8 µM | IC50 ([5]; Aspergillus fumigatus, ATCC204305, 48 h, read-out: IC50 (spectrophotometric detection, 530 nm)): 716 nM | MIC ([5]; Aspergillus fumigatus, ATCC204305, 48 h): 2.86 µM (≈ 1 µg/mL) | IC50 ([6]; Aspergillus flavus, CCM8363, 48 h, read-out: IC50 (spectrophotometric detection, 530 nm)): 5.73 µM | MIC ([6]; Aspergillus flavus, CCM8363, 48 h): > 45.8 µM | IC50 ([7]; Lichtheimia corymbifera, CCM8077, 48 h, read-out: IC50 (spectrophotometric detection, 530 nm)): > 45.8 µM | MIC ([7]; Lichtheimia corymbifera, CCM8077, 48 h): > 45.8 µM | IC50 ([8]; Trichophyton interdigitale, read-out: IC50 (spectrophotometric detection, 530 nm)): 2860 nM | MIC ([8]; Trichophyton interdigitale): > 45.8 µM
